{
  "source": "ChEMBL document CHEMBL1201862",
  "about": "“PubChem BioAssay data set” (2004)",
  "assay_type_in_all_cases": "functional",
  "key": {"[1]": {"target": "Aurora kinase A (Homo sapiens, UniProt O14965)", "sequence (O14965 whole entry)": "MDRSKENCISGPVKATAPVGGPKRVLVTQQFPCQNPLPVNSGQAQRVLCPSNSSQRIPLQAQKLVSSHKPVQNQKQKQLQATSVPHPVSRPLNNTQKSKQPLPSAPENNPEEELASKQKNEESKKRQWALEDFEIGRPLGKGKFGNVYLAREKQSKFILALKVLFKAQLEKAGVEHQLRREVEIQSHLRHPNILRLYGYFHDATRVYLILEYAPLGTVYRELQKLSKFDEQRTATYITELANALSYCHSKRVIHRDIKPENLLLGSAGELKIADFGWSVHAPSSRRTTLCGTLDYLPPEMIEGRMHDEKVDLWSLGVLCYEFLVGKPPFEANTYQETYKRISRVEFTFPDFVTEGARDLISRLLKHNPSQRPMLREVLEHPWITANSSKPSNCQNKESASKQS"}, "[2]": {"target": "Serine/threonine-protein kinase Chk1 (Homo sapiens, UniProt O14757)"}, "[3]": {"target": "Neuropeptides B/W receptor type 1 (Homo sapiens, UniProt P48145)", "sequence (P48145 whole entry)": "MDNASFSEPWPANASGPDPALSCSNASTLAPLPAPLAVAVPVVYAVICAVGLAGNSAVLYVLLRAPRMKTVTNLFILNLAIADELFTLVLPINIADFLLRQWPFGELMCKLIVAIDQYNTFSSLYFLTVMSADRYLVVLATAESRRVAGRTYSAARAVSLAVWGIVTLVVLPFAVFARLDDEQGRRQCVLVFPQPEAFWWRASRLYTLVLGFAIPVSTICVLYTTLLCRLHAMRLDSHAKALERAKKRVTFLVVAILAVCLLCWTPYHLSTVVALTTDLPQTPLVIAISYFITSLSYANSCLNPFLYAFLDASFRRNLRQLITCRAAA", "experiment": "human NPBW1 receptor blockade, IC50 – cell-based, fluorescence, dose response, set 5, late-stage follow-up (AID 588566)"}, "[4]": {"target": "Melanin-concentrating hormone receptor 1 (Homo sapiens, UniProt Q99705)", "sequence (Q99705 whole entry)": "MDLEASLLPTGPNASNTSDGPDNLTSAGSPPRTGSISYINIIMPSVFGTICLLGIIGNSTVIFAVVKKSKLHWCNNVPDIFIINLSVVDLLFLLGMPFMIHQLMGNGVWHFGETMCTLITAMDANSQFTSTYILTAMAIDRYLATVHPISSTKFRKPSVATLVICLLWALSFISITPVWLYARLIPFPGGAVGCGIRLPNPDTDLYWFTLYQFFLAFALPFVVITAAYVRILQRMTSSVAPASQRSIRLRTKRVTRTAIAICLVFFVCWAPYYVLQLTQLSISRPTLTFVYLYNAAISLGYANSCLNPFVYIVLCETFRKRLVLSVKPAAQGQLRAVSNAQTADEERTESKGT", "experiment": "Late-stage fluorescence-based counterscreen for antagonists of the G-protein coupled receptor 7 (GPR7): cell-based dose response assay to identify antagonists of the melanin-concentrating hormone receptor 1 (MCHR1) Set 5."}, "[5]": {"target": "T1, Protein disulfide-isomerase (Homo sapiens, UniProt P07237)", "T1 sequence (P07237 whole entry)": "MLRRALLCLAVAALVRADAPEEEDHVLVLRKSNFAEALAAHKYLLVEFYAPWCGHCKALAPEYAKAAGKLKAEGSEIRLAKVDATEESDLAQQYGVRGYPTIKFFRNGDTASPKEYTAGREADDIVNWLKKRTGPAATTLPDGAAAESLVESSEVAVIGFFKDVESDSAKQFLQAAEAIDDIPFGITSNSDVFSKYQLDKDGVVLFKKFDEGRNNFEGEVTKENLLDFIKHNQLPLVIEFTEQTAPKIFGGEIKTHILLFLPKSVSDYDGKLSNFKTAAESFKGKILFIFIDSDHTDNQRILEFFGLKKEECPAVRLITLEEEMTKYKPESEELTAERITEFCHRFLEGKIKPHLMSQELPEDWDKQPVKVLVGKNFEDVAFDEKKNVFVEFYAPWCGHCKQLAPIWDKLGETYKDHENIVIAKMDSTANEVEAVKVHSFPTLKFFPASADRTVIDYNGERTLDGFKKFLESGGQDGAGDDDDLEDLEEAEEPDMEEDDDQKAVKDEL", "experiment": "inhibition of PDI-driven insulin aggregation – biochemical, turbidity, absorbance, cherry-picked samples, dose response (AID 602350)"}, "[6]": {"target": "T1, Protein disulfide-isomerase", "experiment": "inhibition of PDI-mediated insulin reduction – biochemical, turbidity, absorbance, cherry-picked samples, set 2, dose response (AID 624274)"}, "[7]": {"target": "Serine/threonine-protein kinase pim-1 (Homo sapiens, UniProt P11309)", "sequence (P11309 whole entry)": "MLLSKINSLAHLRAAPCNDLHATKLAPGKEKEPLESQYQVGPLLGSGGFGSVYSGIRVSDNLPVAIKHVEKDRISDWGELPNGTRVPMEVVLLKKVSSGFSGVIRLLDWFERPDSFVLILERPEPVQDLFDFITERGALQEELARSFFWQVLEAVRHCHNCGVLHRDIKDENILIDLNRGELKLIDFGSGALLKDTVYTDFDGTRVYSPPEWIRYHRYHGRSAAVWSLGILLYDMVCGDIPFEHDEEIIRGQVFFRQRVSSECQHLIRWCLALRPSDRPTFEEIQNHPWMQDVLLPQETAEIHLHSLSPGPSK"}, "[8]": {"target": "Cell division cycle 7-related protein kinase (Homo sapiens, UniProt O00311)", "sequence (O00311 whole entry)": "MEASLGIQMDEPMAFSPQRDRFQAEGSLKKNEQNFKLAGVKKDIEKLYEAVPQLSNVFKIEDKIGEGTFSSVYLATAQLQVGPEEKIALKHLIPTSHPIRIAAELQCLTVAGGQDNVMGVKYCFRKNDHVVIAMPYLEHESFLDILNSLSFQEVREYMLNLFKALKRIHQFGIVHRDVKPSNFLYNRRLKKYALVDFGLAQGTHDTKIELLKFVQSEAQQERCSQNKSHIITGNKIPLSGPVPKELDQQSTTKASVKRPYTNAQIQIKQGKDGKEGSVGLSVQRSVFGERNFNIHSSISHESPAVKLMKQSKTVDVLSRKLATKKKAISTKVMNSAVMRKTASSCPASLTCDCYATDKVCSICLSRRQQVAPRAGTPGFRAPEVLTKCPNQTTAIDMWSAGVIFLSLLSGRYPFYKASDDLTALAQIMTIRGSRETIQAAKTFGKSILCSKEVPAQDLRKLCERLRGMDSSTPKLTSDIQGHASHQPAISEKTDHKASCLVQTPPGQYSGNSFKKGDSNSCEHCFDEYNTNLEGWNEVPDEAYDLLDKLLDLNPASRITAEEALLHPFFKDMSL"}, "[9]": {"target": "Homeodomain-interacting protein kinase 2 (Homo sapiens, UniProt Q9H2X6)", "sequence (Q9H2X6 whole entry)": "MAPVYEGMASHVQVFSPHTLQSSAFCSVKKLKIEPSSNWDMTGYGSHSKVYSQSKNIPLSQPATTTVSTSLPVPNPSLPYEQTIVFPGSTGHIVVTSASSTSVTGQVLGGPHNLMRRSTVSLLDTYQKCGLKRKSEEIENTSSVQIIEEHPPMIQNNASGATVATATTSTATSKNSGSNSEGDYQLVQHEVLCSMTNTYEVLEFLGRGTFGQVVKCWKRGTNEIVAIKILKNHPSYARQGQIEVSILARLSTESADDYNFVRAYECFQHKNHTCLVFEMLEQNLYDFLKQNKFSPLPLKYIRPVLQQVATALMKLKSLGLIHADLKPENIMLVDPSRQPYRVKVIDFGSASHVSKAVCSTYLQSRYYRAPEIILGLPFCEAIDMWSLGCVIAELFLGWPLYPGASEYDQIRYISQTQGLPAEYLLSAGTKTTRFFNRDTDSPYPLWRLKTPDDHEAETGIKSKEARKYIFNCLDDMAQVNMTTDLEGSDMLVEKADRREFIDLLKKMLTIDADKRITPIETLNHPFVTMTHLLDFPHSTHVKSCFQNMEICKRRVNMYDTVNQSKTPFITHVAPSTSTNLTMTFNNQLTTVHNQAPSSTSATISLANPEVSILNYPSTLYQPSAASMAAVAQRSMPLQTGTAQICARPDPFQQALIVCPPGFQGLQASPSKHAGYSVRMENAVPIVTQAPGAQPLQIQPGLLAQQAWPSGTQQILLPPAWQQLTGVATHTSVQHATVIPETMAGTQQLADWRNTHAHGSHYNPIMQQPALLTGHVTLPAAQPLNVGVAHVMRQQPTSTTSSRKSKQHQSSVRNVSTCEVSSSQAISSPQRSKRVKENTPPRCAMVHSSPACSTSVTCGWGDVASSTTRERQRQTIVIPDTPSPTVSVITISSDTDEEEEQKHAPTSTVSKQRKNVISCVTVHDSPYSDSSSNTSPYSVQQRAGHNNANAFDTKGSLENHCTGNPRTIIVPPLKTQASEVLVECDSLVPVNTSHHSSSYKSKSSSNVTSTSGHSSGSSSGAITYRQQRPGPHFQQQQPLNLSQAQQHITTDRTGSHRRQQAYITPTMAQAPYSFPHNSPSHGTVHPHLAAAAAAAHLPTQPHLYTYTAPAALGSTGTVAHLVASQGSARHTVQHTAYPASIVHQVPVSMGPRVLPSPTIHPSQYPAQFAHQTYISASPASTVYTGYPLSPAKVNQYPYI"}, "[10]": {"target": "MAP kinase-interacting serine/threonine-protein kinase 2 (Homo sapiens, UniProt Q9HBH9)"}, "[11]": {"target": "Interleukin-1 receptor-associated kinase 4 (Homo sapiens, UniProt Q9NWZ3)"}, "[12]": {"target": "Glycogen synthase kinase-3 beta (Homo sapiens, UniProt P49841)", "sequence (P49841 whole entry)": "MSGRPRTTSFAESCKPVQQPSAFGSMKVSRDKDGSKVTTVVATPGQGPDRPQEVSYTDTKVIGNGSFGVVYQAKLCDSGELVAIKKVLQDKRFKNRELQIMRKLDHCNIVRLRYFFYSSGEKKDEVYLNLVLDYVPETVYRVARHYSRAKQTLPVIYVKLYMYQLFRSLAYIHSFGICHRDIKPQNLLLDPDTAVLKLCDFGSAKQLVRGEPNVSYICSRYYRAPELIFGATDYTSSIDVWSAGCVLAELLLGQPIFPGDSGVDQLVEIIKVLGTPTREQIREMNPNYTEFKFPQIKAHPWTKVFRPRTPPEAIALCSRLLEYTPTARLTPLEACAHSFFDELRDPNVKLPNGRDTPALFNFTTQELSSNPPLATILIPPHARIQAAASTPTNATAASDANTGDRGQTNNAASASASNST"}, "[13]": {"target": "cAMP-dependent protein kinase catalytic subunit alpha (Homo sapiens, UniProt P17612)"}, "[14]": {"target": "Dual specificity protein kinase CLK4 (Homo sapiens, UniProt Q9HAZ1)", "sequence (Q9HAZ1 whole entry)": "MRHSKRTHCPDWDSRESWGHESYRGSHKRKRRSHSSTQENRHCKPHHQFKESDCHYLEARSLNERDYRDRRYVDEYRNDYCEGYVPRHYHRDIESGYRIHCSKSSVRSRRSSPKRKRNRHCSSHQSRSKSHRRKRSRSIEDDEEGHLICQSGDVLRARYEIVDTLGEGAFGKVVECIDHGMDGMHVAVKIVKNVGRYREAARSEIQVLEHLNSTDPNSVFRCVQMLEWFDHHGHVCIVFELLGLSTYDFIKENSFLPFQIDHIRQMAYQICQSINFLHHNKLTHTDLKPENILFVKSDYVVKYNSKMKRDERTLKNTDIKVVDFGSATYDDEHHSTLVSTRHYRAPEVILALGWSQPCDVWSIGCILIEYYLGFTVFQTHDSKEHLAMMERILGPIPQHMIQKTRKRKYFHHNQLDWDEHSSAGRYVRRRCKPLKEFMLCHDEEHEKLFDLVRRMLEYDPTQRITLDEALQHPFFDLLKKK"}, "[15]": {"target": "Mitogen-activated protein kinase kinase kinase kinase 4 (Homo sapiens, UniProt O95819)"}},
  "note": "Active and inactive are the calls of the source.",
  "data": [
    {"smiles": "CN(C)c1ncnc2[nH]ncc12", "values": [
      {"measurement": "Ki", "setting": "[1]", "value": "12600 nM (active)"},
      {"measurement": "Ki", "setting": "[2]", "value": "5010 nM (active)"}
    ]},
    {"smiles": "O=c1c(Oc2ccc3ccccc3c2)c(Cl)cnn1Cc1cccc2ccccc12", "values": [
      {"measurement": "IC50", "setting": "[3]", "value": "> 20000 nM (inactive)"},
      {"measurement": "IC50", "setting": "[4]", "value": "> 20000 nM (inactive)"}
    ]},
    {"smiles": "O=C1NC(Cc2ccc(O)cc2)c2nc3ccccc3c(=O)n2-c2ncccc21", "note": "(stereo not given)", "values": [
      {"measurement": "AC50", "setting": "[5]", "value": "< 9 nM (active)"},
      {"measurement": "AC50", "setting": "[6]", "value": "9 nM (active)"}
    ]},
    {"smiles": "Nc1n[nH]c2ccc(-c3nnn(Cc4ccccc4)c3C3CC3)cc12", "values": [
      {"measurement": "Ki", "setting": "[7]", "value": "3980 nM (active)"},
      {"measurement": "Ki", "setting": "[8]", "value": "31.6 nM (active)"},
      {"measurement": "Ki", "setting": "[9]", "value": "2000 nM (active)"},
      {"measurement": "Ki", "setting": "[10]", "value": "398 nM (active)"},
      {"measurement": "Ki", "setting": "[11]", "value": "> 10000 nM (inactive)"},
      {"measurement": "Ki", "setting": "[12]", "value": "7.94 nM (active)"},
      {"measurement": "Ki", "setting": "[13]", "value": "631 nM (active)"},
      {"measurement": "Ki", "setting": "[14]", "value": "25.1 nM (active)"},
      {"measurement": "Ki", "setting": "[15]", "value": "1000 nM (active)"}
    ]}
  ]
}
